From patent publication US9243036B2, “Anti-microbial activity of synthetic peptides” (THE UNITED STATES OF AMERICA, as represented by the …, priority 2012, dated 2016)
Residues, ends and D or L forms follow the SMILES beside them.

Tests used:
E. coli [1] = test: Membrane permeability by PI and SYTO9 uptake (LIVE/DEAD BACLIGHT); type: cell-based; conditions: SYTO9 and PI staining
Procedure: (§1) The effects of EC5 on the membrane integrity of E. coli and P. aeruginosa cells were assessed using the LIVE/DEAD BACLIGHT™ kit (Invitrogen, Oregon) according to the manufacturer's protocol. Membrane integrity of the cells after the addition of different concentrations of peptide EC5 was measured using fluorescence micro plate reader (BioTek Instruments, Winooski, Vt.). Experiments were done in triplicates. PMB was used as a positive control.
(§2) The membrane permeabilizing activity of EC5 was also studied using the SYTO9 and PI staining method. SYTO9 stain labels both live and dead bacteria when alone, but propidium iodide stains only cells with damaged membranes, reducing the level of green fluorescent SYTO9 when both the dyes are present. […] The ratio of green versus red fluorescence can be calculated as a measure of live bacteria. […] Polymyxin B, an AMP with a net charge of +5 with membrane permeabilizing activity was used as positive control.

P. aeruginosa [2] = test: as above; type: cell-based; conditions: SYTO9 and PI staining
Procedure: as §1, §2

E. coli [3] = test: ATP inhibition (BACTITER-GLO); type: cell-based; conditions: EC5 at lowest concentration of 3.125 μg/ml
Procedure: (§3) The effects of EC5 on ATP inhibition as a measure of metabolic activity of E. coli and P. aeruginosa cells was determined by using BACTITER-GLO™ assay kit (Promega) according to the manufacturer's protocol. The luminescent signal correlates with the number of viable microbial cells based on the amount of ATP present after the addition of different concentrations of the peptide. Polymyxin B was included as a positive control.
(§4) ATP inhibition as a measurement of microbial viability was measured using BacTiter-Glo kit ([…]). Intracellular ATP levels of E. coli and P. aeruginosa were examined after the addition of different concentrations of EC5 (FIG. 9D). ATP inhibition began 5 min after the addition of EC5 at lowest concentration of 3.125 μg/ml which was slightly lower than the MIC of 8 μg/ml for E. coli and P. aeruginosa.

P. aeruginosa [4] = test: ATP inhibition (BACTITER-GLO); type: cell-based; conditions: EC5 at lowest concentration of 3.125 μg/ml
Procedure: as §3, §4

E. coli [5] = test: Cytoplasmic membrane depolarization assay (diSC3-5) with parallel CFU plating; type: cell-based; conditions: EC5 at 8 μg/ml and 16 μg/ml
Procedure: (§5) Membrane depolarization activity (Δψ) of the peptide was determined with intact E. coli and P. aeruginosa cells and the membrane potential-sensitive fluorescent dye, 3,3′-dipropylthiadicarbocyanine Iodide (diSC (3)5) (Invitrogen, Oregon), according to described methods (Sims, P. J., et al (1974) Biochemistry 13, 3315-3330). Briefly, bacterial cells of mid-logarithmic phase were harvested by centrifugation and washed twice with HEPES buffer (5 mM HEPES, 5 mM glucose, pH 7.6). The cells were suspended in the same buffer to an OD of 0.05. The cell suspension was incubated with […] diSC (3)5 until maximal uptake of the dye. 100 mM KCl was added to equilibrate the cytoplasmic and external potassium ion concentration of peptide, and fluorescence was monitored at an excitation wavelength of 622 nm and an emission wavelength of 670 nm. Polymyxin B was used as a positive control and S. aureus cells were used as negative control. Simultaneously the cells were plated on NA plates and incubated at 37° C. overnight to assess the number of CFU.
(§6) Cytoplasmic depolarization assay(Δψ) was performed using the membrane potential sensitive dye 3,3′-dipropylthiadicarbocyanine iodide (diSC3-5) (Zang, L. et al., (2001) J. Biol. Chem. 276, 35714-35722). This dye can cross the outer membrane of the bacterial cell and become concentrated in the cytoplasmic membrane and thereby it self-quenches its own fluorescence. Upon addition of a membrane-permeabilizing agent the dye is released with consequent increase in the fluorescence. EC5 at 8 μg/ml and 16 μg/ml caused rapid depolarization of the cytoplasmic membrane in both E. coli and P. aeruginosa resulting in the release of diSC3-5 within 5 min (FIG. 9C). […] However Polymyxin B even at its MIC of 0.5 μg/ml caused slow release of diSC3-5 when compared to EC5.

P. aeruginosa [6] = test: as above; type: cell-based; conditions: EC5 at 8 μg/ml and 16 μg/ml
Procedure: as §5, §6

B. cereus = test: Whole-cell ELISA binding of biotinylated peptide; conditions: EC5 50 μg/ml
Procedure: (§7) ELISA. Log-phase cultures of bacteria were centrifuged at 3,000×g. The cell pellet was resuspended and 10-fold serial dilutions were made in 1×PBS. Bacterial cell suspension at a concentration of 10^3 CFU was coated to the wells of 96-well micro plate (Becton Dickinson, Bedford, Mass.) and incubated overnight at RT. Subsequently, cells were fixed in ethanol (Aldrich Chemical Company, Milwaukee, Wis.) for 10 minutes (min) and the plates were air-dried. Wells were blocked with 5% bovine serum albumin (BSA) (Sigma, St. Louis, Mo.) for 60 min at room temperature (RT), rinsed with PBS and then EC5 peptide suspended in phosphate buffered saline (PBS) at a final concentration of 50 μg/ml were added to all the wells and incubated for 15 min. Following incubation, wells were washed 3 times with PBST buffer (PBS pH 7.4, 0.01% Tween 20). The wells were further incubated with 1:10,000 dilution of streptavidin-HRP conjugate (Upstate, Temecula, Calif.) for 15 min and washed with PBST buffer. Tetramethylbenzidine (TMB) membrane peroxidase substrate (Zymed Laboratories, Carlsbad, Calif.) system was used to detect the enzyme label in accordance with the manufacturer's instructions. The color development in the 96-well plate was recorded by using SYNERGY 4™ BioTek micro plate reader (BioTek Instruments, Winooski, Vt.) at 490 nm wavelength.

P. aeruginosa cells = test: Whole-cell ELISA binding of biotinylated peptide; conditions: EC5 50 μg/ml; p<0.05
Procedure: as §7

S. aureus = test: Whole-cell ELISA binding of biotinylated peptide; conditions: EC5 50 μg/ml
Procedure: as §7

S. epidermidis = test: Whole-cell ELISA binding of biotinylated peptide; conditions: EC5 50 μg/ml
Procedure: as §7

E. coli cells = test: Whole-cell ELISA binding of biotinylated peptide; conditions: EC5 50 μg/ml; p<0.001
Procedure: as §7

K pneumoniae = test: Whole-cell ELISA binding of biotinylated peptide; conditions: EC5 50 μg/ml
Procedure: as §7

E. coli [7] = test: 2 h incubation of mid-logarithmic cultures with peptide, CFU on NA plates; type: cell-based; conditions: peptide 12.5, 25 and 50 μg/ml, inoculum 10^5 CFU/ml
Procedure: (§8) Mid-logarithmic phase cultures of bacteria with an inoculum of 10^5 CFU/ml were incubated with peptide concentrations ranging from 0 to 50 μg/ml in a shaker incubator for 2 h following which the samples were plated on NA agar plates and CFU determined.

P. aeruginosa [8] = test: as above; type: cell-based; conditions: peptide 12.5, 25 and 50 μg/ml, inoculum 10^5 CFU/ml
Procedure: as §8

In the case of `CC[C@H](C)[C@H](NC(=O)[C@H](CCCCN)NC(=O)[C@H](CCCNC(=N)N)NC(=O)[C@H](Cc1ccccc1)NC(=O)[C@H](CC(C)C)NC(=O)[C@H](CC(C)C)NC(=O)[C@@H](N)CCCNC(=N)N)C(=O)N[C@@H](CCCNC(=N)N)C(=O)N[C@@H](CCCNC(=N)N)C(=O)N[C@@H](CC(C)C)C(=O)N[C@@H](CCCCN)C(=O)N[C@@H](CCCNC(=N)N)C(=O)O` [EC5, RLLFRKIRRLKR] (H-RLLFRKIRRLKR-OH; N-terminus and C-terminus assumed), the “concentration showing maximum permeability of cells” value (E. coli [1]) is reported as 6.25 µg/mL, the “concentration showing maximum permeability of cells” value (P. aeruginosa [2]) is reported as 12.5 µg/mL and the “time at which ATP inhibition began” value (E. coli [3]) is reported as 5 min. The “time at which ATP inhibition began” value (P. aeruginosa [4]) was 5 min, the “time to complete inhibition of CFU” value (E. coli [5]) was ≤ 5 min and the “time to release of diSC3-5 (depolarization of the cytoplasmic membrane)” value (E. coli [5]) was ≤ 5 min. For the same compound, the “time to complete inhibition of CFU” value (P. aeruginosa [6]) was ≤ 5 min, the “time to release of diSC3-5 (depolarization of the cytoplasmic membrane)” value (P. aeruginosa [6]) was ≤ 5 min and the “binding to B. cereus” value (B. cereus) was “did not bind”. The “binding to P. aeruginosa cells” value (P. aeruginosa cells) was “showed binding”, the “binding to S. aureus” value (S. aureus) was “did not bind” and the “binding to S. epidermidis” value (S. epidermidis) was “did not bind”. The “binding to E. coli cells” value (E. coli cells) was “significant binding efficiency”, the “binding to K pneumoniae” value (K pneumoniae) was “did not bind” and the “reduction of E. coli” value (E. coli [7]) was 5 log10 CFU/ml. For the same compound, the “reduction of P. aeruginosa” value (P. aeruginosa [8]) was 5 log10 CFU/ml.
